Patent US20100203012A1, “IAP BIR DOMAIN BINDING COMPOUNDS” (Aegera Therapeutics, Inc., priority 2007, published 2010)

Experiments:
HCT116 cells = experiment: Cytotoxicity assay (MTT) on HCT-116 cells co-treated with HGS-ETR1; assay type: cell-based; conditions: Homo sapiens, co-treated with HGS-ETR1 40 ng/mL, 72 hours
Experimental: (§1) SKOV3 (ovarian) and HCT-116 (colon) cancer cells were cultured in McCoy's 5A media supplemented with 10% FBS and 100 units/mL of Penicillin and Streptomycin.
(§2) Cytotoxicity assays were performed on various cell lines including SKOV3 and HCT-116 cells. Cells were seeded in 96 well plates at a respective density of 2000 and 5000 cells per well and incubated at 37° C. in presence of 5% CO2 for 24 hours. Selected compounds were diluted into the media at various concentrations ranging from 0.01 nM up to 100 nM. Diluted compounds were added onto the SKOV3 cells. HCT-116 cells were co-treated with Trail receptor monoclonal antibody agonist (HGS-ETR^1, 40 ng/mL). After 72 hours, cellular viability was evaluated by MTT conversion. A solution of 3-(4,5-dimethylthiazol-2-yl)-2,5-diphenyltetrazolium bromide (MTT) was added onto cells for a period of 1 to 4 hours. Media was removed and replaced with isopropanol. Conversion of MTT by viable cells was detected by absorbance at 570 nm. The percentage of viability was expressed in percentage of the signal obtained with non treated cells.

SKOV3 cells = experiment: Cytotoxicity assay (MTT) on SKOV3 cells; assay type: cell-based; conditions: Homo sapiens, SK-OV-3, 72 hours, single agent
Experimental: as §1, §2

[1] = biological target: T1, XIAP BIR2-BIR3-ring (GST-linker BIR 2 BIR3Ring) (Homo sapiens, UniProt P98170); experiment: Fluorescence polarization competition assay, BIR2-BIR3-ring, probe P2; assay type: binding; conditions: ki derived from IC50, read-out: ki in the BIR2-BIR3-ring FP assay
T1 construct: made in house; host or cells: Escherichia coli DH5-alpha
From the text: GST-linker BIR 2 BIR3Ring: XIAP coding sequence from amino acids 93-497 cloned into PGex4T1 via BamH1 and XhoI. Amino acids 93-497 were amplified from full length XIAP in pGex4t3, using the primers: […] and GCTGCATGTGTGTCAGAGG, using standard PCR conditions. The PCR fragment was TA cloned into pCR-2.1 (invitrogen). Linker BIR 2 BIR 3Ring was subcloned into pGex4T1 by BamHI/XhoI digestion. The plasmid was transformed into E. coli DH5α for use in protein expression and purification.
For all assays, the fluorescence and fluorescence-polarization was evaluated using a Tecan Polarion instrument with the excitation filter set at 485 nm and the emission filter set at 535 nm. […] Upon establishing these conditions, the compounds potency (IC50) and selectivity, was assessed in the presence of a fix defined-amount of target protein and fluorescent probe and a 10 point serial dilution of the selected compounds. […] Auto-fluorescence for each compound was first assessed by performing a reading of the compound/BSA solution alone. Then 25 uL of the fluorescein probe (P1 or P2) diluted into 50 mM MES containing 0.05 mg/ml BSA were added and a reading to detect quenching of fluorescein signal done. Finally 25 uL/well of the target or control protein (GST-BIRs) diluted at the appropriate concentration in 50 mM MES containing 0.05 mg/ml BSA were added and the fluorescence polarization evaluated. […]

T1 sequence (P98170 93-497): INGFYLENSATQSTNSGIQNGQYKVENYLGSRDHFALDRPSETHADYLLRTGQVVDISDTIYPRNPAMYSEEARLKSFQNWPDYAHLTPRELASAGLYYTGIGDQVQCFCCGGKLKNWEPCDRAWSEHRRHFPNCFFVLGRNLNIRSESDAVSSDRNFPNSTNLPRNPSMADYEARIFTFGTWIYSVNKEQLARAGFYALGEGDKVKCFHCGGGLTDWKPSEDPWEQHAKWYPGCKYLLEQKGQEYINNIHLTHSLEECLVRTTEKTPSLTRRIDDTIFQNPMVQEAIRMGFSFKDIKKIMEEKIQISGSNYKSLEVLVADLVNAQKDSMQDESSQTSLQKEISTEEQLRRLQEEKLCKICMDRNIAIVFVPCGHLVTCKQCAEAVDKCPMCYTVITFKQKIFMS

Compound	EC50 (HCT116 cells)	EC50 (SKOV3 cells)	Ki [1]
CN[C@@H](C)C(=O)N[C@H](C(=O)N1CCN(C(=O)c2ccc(C(=O)N3CCN(C(=O)[C@@H](NC(=O)[C@H](C)NC)C(C)(C)C)[C@H](C(=O)N[C@@H]4CCCc5ccccc54)C3)cc2)C[C@H]1C(=O)N[C@@H]1CCCc2ccccc21)C(C)(C)C [Compound 1]	< 0.05 µM	< 0.05 µM	
CN[C@@H](C)C(=O)N[C@H](C(=O)N1CCN(C(=O)CCCCCCCCC(=O)N2CCN(C(=O)[C@@H](NC(=O)[C@H](C)NC)C(C)(C)C)[C@H](C(=O)N[C@@H]3CCCc4ccccc43)C2)C[C@H]1C(=O)N[C@@H]1CCCc2ccccc21)C(C)(C)C [Compound 2]	< 0.05 µM	< 0.05 µM	
CN[C@@H](C)C(=O)N[C@H](C(=O)N1CCN(C(=O)CNC(=O)c2ccc(-c3ccc(C(=O)NCC(=O)N4CCN(C(=O)[C@@H](NC(=O)[C@H](C)NC)C(C)(C)C)[C@H](C(=O)N[C@@H]5CCCc6ccccc65)C4)cc3)cc2)C[C@H]1C(=O)N[C@@H]1CCCc2ccccc21)C(C)(C)C [Compound 3]			< 0.1 µM
